In assay [1] the test system is primary lung fibroblasts from scleroderma patients. Put plainly: RT-qPCR of pro-fibrotic mRNAs in TGF-β-treated primary lung fibroblasts. Format: cell-based, human. To be noted: peptide 10 ng/mL plus TGF-β 10 ng/mL, 24 hours, delta-delta Ct, GAPDH housekeeping. How it is done:
Primary lung fibroblasts from scleroderma patients were treated with TGF-β alone, or with IP-10-1 (SEQ ID NO: 2; FIGS. 1A-1C), IP-10-2 (SEQ ID NO: 3; FIGS. 1D-1F), or IP-10-3 (SEQ ID NO: 4; FIGS. 1G-1I) peptide (10 ng/mL) in the presence or absence of TGF-β (10 ng/mL) for 24 hours and then analyzed by RT-qPCR for the fibrotic ECM markers tenascin C (FIGS. 1A, 1D, 1G), collagen 1 (FIGS. 1B, 1E, 1H) and fibronectin (FIGS. 1C, […], 1I). Treatment with TGF-β alone induced expression of mRNAs for tenascin C (TNC), collagen 1 (COL1A1), and fibronectin (FN1) in primary lung fibroblasts. When cells were treated with an IP-10 peptide in combination with TGF-β, the IP-10 peptides reduced or prevented induction in mRNA expression of TNC, COL1A1, and FN1.
Primary lung fibroblasts from scleroderma patients were plated in 6-well plates in complete medium and incubated overnight. The next day, the medium was changed to quiescent medium and the cells were incubated in this medium for 24 hours. The following day, cells were left untreated, treated with 10 ng/mL of IP-10-1 (SEQ ID NO: 2), IP-10-2 (SEQ ID NO: 3) or IP-10-3 (SEQ ID NO: 4) peptide, treated with 10 ng/mL TGF-β, or treated with the combination of peptide and TGF-β for 24 hours. Total RNA was extracted using the Qiagen miRNeasy kit (Qiagen) and treated with DNase1, according to the manufacturer's instructions. RNA was then quantified and converted to cDNA using the Clontech RNA to cDNA EcoDry Double Primed Premix (Takara). qPCR was performed using PowerUp Sybr Green (Invitrogen) on an Applied Biosystems Quant Studio 3 instrument. Primers were from IDT and were designed using IDT Primer Quest and NCBI Primer Blast tools. The delta-delta Ct method was used to determine relative expression of the pro-fibrotic mRNAs for tenascin C (TNC), collagen 1 (COL1A1), and fibronectin (FN1). GAPDH was used as a housekeeping gene.

Assay [2] deals with angiogenesis. To be noted: earlier work, not tested in anti-fibrotic applications; cited from earlier work.
Assay [3] deals with T1, CXCR3B isoform (Homo sapiens, UniProt P49682).
T1 construct: host or cells: dermal endothelial cells (as described in the cited PCT publications)
T1 sequence (P49682 1-415 isoform P49682-2): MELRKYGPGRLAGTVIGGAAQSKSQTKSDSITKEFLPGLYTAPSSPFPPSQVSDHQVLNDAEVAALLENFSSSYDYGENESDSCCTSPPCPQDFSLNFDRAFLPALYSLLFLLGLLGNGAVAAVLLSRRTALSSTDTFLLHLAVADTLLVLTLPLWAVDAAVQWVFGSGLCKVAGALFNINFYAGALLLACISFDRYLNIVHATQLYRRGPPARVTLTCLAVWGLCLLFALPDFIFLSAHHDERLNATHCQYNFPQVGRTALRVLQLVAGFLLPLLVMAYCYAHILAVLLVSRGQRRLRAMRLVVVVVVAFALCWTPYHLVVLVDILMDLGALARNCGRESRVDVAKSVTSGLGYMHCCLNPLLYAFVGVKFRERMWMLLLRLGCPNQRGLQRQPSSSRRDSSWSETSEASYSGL
The note with it: described in WO 2013/032853 and WO 2015/112505; cited from earlier work.

The values below come from US20220313777A1, “INHALED DELIVERY OF PEPTIDE MIMICS OF CXCL10 FOR TARGETED ANTI-FIBROTIC THERAPY” (University of Pittsburgh - Of the Commonwealth System of …, priority 2019, published 2022).

As to “FAKAIKNFAKAVAKFA [IP-10-3, CXCL10 (IP-10) peptide variant]”, in assay [1], the “expression of collagen 1 (COL1A1) mRNA relative to treatment with TGF-β alone” value is on record as “significantly reduced or prevented”, the “expression of fibronectin (FN1) mRNA relative to treatment with TGF-β alone” value is “significantly reduced or prevented” and the “expression of tenascin C (TNC) mRNA relative to treatment with TGF-β alone” value is recorded as “significantly reduced or prevented”.

With “PESKVIKNLLKVASKERSKRSP [IP-10-1, CXCL10 (IP-10) peptide variant]”, in assay [1], the “expression of collagen 1 (COL1A1) mRNA relative to treatment with TGF-β alone” value is “significantly reduced or prevented”, the “expression of fibronectin (FN1) mRNA relative to treatment with TGF-β alone” value is given as “significantly reduced or prevented” and the “expression of tenascin C (TNC) mRNA relative to treatment with TGF-β alone” value is listed as “significantly reduced or prevented”.

For the sequence “PESRVIKNLLRVVSKEKSRRSP [IP-10-2, CXCL10 (IP-10) peptide variant]”, in assay [1], the “expression of collagen 1 (COL1A1) mRNA relative to treatment with TGF-β alone” value is reported as “significantly reduced or prevented”, the “expression of fibronectin (FN1) mRNA relative to treatment with TGF-β alone” value is on record as “significantly reduced or prevented” and the “expression of tenascin C (TNC) mRNA relative to treatment with TGF-β alone” value is recorded as “significantly reduced or prevented”.

For “PESKAIKNLLKAVSKEMSKRSP [IP-10p, CXCL10 peptide consisting of the α-helical domain (residues 77-98 of human CXCL10)]”, the inhibition of angiogenesis entry in assay [2] was “able to inhibit angiogenesis”. The “activation of the CXCR3B isoform” value in assay [3] was “activates the CXCR3B isoform”.
